The source of these data is patent US12606552B2, “Bifunctional compound, preparation method therefor, and use thereof” (SUZHOU KINTOR PHARMACEUTICALS, INC., priority 2020, dated 2026).

A short description of series [1]: Pharmacokinetic studies of compounds in mice. Format: in vivo. The following applies: male mice, intragastric administration 10 mg/kg, plasma. The protocol:
Activity Assay Example 3: Pharmacokinetic Studies of Compounds in Mice
In this test, 3 male mice were selected and divided into 1 group, 3 mice/group. All animals were fasted overnight before administration.
The intragastric administration dose was 10 mg/kg, and the administration volume was 10 mL/kg.
2.2 Preparation of Drug Solution
According to the animal body weight combined with the administration dose, the amount of the required drug solution was calculated. An appropriate amount of the test substance was weighed, added with 5% of the final volume of ethanol for dissolution, then added with 5% of the final volume of SolutolHS15, and finally added with PBS to the final volume, and mixed by vortex and fully dissolved to obtain a solution for intragastric administration (1 mg/mL). All solutions were prepared for immediate use.
2.3 Method of Administration
Before administration, the drug solution was placed on a magnetic stirrer in the animal laboratory and stirred for at least 10 min. During the administration process, vortex was continued to ensure uniformity of the drug solution. The theoretical volume of gavage administration was 10 mL/kg, which was administered with a syringe equipped with a gavage needle.
Before administration, the animals were weighed and the body weight of the animals involved in the experiment was recorded, and the administration volume of each animal was calculated according to the body weight. After administration, animals were promptly transferred back to the experimental cages to collect samples.
2.4 Observation of Animal Status
After administration, whether animals had abnormal reactions was observed immediately. If there were no abnormal reactions, animals were observed twice a day during the experiment. If abnormal reactions were found, they should be recorded in time, and the number of observations should be increased until the animals returned to normal or to the end of the experiment.
2.5 Sample Collection and Preservation
All experimental animals were fasted overnight before administration, and blood was collected at corresponding time points into blood collection tubes containing heparin sodium anticoagulant. After the whole blood was collected, the blood collection tube was gently shaken and placed on ice immediately, and then centrifuged (4° C., 4000 rpm, 10 min) to collect supernatant plasma samples, which were stored in a refrigerator at −80° C. before analysis.
2.6 Plasma Sample Processing and Analysis
The collected plasma samples were handed over to the Pharmacokinetic department for sample extraction, and the test substances in the plasma were extracted by protein precipitation method using organic reagents containing internal standards (acetonitrile:plasma=4:1, v/v). The extracted processed samples were submitted for quantitative concentration analysis by LC-MS/MS. According to the plasma concentration of each animal obtained by the analysis, software Kinetica (version 5.0) was used to calculate the main pharmacokinetic parameter eAUC30-120 according to the non-compartment model to evaluate the exposure amount; the test results are shown in Table 2: […]

For series [2], the target named is T1, AR (Homo sapiens, UniProt P10275, T878A).
T1 sequence (P10275 1-920 T878A): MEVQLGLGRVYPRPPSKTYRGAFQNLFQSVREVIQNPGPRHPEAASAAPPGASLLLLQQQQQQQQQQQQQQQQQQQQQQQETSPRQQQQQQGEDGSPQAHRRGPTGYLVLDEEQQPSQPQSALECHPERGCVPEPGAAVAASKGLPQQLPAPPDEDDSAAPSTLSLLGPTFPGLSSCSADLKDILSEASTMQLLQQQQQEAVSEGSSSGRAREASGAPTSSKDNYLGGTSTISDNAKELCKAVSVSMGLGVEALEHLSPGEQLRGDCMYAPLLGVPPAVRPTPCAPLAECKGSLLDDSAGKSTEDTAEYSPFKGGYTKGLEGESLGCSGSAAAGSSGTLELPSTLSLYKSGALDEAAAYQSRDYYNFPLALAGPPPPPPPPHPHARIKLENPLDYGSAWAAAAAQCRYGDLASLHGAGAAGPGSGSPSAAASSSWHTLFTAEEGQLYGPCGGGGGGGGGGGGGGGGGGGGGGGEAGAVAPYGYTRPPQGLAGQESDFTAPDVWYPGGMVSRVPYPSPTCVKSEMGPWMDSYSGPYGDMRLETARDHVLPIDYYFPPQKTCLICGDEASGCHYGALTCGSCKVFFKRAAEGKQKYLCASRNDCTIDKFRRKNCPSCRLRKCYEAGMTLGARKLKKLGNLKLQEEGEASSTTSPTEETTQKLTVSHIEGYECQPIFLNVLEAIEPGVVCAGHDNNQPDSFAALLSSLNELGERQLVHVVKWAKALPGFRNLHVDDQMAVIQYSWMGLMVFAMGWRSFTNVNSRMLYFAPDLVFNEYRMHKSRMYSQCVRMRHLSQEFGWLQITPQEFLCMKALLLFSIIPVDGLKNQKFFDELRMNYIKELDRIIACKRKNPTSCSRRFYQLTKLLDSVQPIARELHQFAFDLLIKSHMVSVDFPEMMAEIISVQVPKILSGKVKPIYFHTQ
The series is described as follows: Effects of compounds on AR expression in LNCaP cells (ELISA, DC50). Format: cell-based. Further details: Measurement of the Effects of Drugs on the Expression of AR in Cells by ELISA Method; endogenous in cells; host or cells: LNCaP. The following applies: 24 hours of drug treatment, AR by ELISA. The essentials: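 LNCaP cells at about 15,000/well were treated for 24 h with compound at 0.0001–2 μmol/L final. AR in cell lysates was measured by ELISA (OD450). Inhibition was relative to DMSO control after blank subtraction, and DC50 was calculated from it.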

Regarding `Cc1ncsc1-c1ccc(CNC(=O)[C@@H]2C[C@@H](O)CN2C(=O)[C@@H](NC(=O)COCCOCCOc2c(F)cc(-c3ncc(N4C(=S)N(c5ccc(C#N)c(C(F)(F)F)c5F)C(=O)C4(C)C)cc3F)cc2F)C(C)(C)C)cc1` [Compound A99], the “eAUC0.5-2 h” value in series [1] amounted to 308 ± 288 ng·h/mL. This compound also registered a DC50 in series [2] of 23.2 nM.
Consider `Cc1ncsc1-c1ccc(CNC(=O)[C@@H]2C[C@@H](O)CN2C(=O)[C@@H](NC(=O)[C@H]2CC[C@H](CNC(=O)c3ccc(-c4ccc(N5C(=S)N(c6ccc(C#N)c(C(F)(F)F)c6F)C(=O)C5(C)C)cn4)cc3F)CC2)C(C)(C)C)cc1` [Compound A105], for which, in series [1], the “eAUC0.5-2 h” value came to 379 ± 300 ng·h/mL. This compound also came in with a DC50 in series [2] of 188 nM.
The matching figures for `Cc1ncsc1-c1ccc([C@H](C)NC(=O)[C@@H]2C[C@@H](O)CN2C(=O)[C@@H](NC(=O)COCCCCOc2ccc(-c3ncc(N4C(=S)N(c5ccc(C#N)c(C(F)(F)F)c5F)C(=O)C4(C)C)cc3F)cc2F)C(C)(C)C)cc1` [Compound A110]: 1098 ± 208 ng·h/mL and 56.4 nM.
As for `Cc1ncsc1-c1ccc([C@H](C)NC(=O)[C@@H]2C[C@@H](O)CN2C(=O)[C@@H](NC(=O)COCCCCOc2c(F)cc(-c3ncc(N4C(=S)N(c5ccc(C#N)c(C(F)(F)F)c5F)C(=O)C4(C)C)cc3C(F)(F)F)cc2F)C(C)(C)C)cc1` [Compound A115], the “eAUC0.5-2 h” value in series [1] was found to be 1136 ± 164 ng·h/mL. Moreover, the DC50 in series [2] was 214 nM.
The matching figures for `Cc1ncsc1-c1ccc(CNC(=O)[C@@H]2C[C@@H](O)CN2C(=O)[C@@H](NC(=O)COCCOc2ccc(-c3ncc(N4C(=S)N(c5ccc(C#N)c(C(F)(F)F)c5F)C(=O)C4(C)C)cc3F)cc2F)C(C)(C)C)cc1` [Compound A91]: 3160 ± 2820 ng·h/mL and 108 nM.
The matching figures for `Cc1ncsc1-c1ccc([C@H](CC(=O)NCCN2CCC(C#Cc3ccc(N4C(=S)N(c5ccc(C#N)c(C(F)(F)F)c5F)C(=O)C4(C)C)cc3)CC2)NC(=O)[C@@H]2C[C@@H](O)CN2C(=O)[C@@H](NC(=O)C2(F)CC2)C(C)(C)C)cc1` [Compound A139]: 53 ± 30 ng·h/mL and 225 nM.
With `Cc1ncsc1-c1ccc(CNC(=O)[C@@H]2C[C@@H](O)CN2C(=O)[C@@H](NC(=O)COCCCCOc2ccc(-c3ncc(N4C(=S)N(c5ccc(C#N)c(C(F)(F)F)c5F)C(=O)C4(C)C)cc3F)c(F)c2)C(C)(C)C)cc1` [Compound A94], the “eAUC0.5-2 h” value in series [1] stood at 410 ± 38 ng·h/mL. The same compound returned a DC50 in series [2] of 58.4 nM.
The matching figures for `Cc1ncsc1-c1ccc(CNC(=O)[C@@H]2C[C@@H](O)CN2C(=O)[C@@H](NC(=O)COCCCCOc2ccc(-c3ncc(N4C(=S)N(c5ccc(C#N)c(C(F)(F)F)c5F)C(=O)C4(C)C)cc3C(F)(F)F)c(C(F)(F)F)c2)C(C)(C)C)cc1` [Compound A101]: 508 ± 171 ng·h/mL and 115 nM.
For the compound `Cc1ncsc1-c1ccc(CNC(=O)[C@@H]2C[C@@H](O)CN2C(=O)[C@@H](NC(=O)COCCCCOc2c(F)cc(-c3ncc(N4C(=S)N(c5ccc(C#N)c(C(F)(F)F)c5F)C(=O)C4(C)C)cc3C(F)(F)F)cc2F)C(C)(C)C)cc1` [Compound A79], in series [1], the “eAUC0.5-2 h” value was 950 ± 114 ng·h/mL. This compound registered a DC50 in series [2] of 129 nM.
The matching figures for `Cc1ncsc1-c1ccc(CNC(=O)[C@@H]2C[C@@H](O)CN2C(=O)[C@@H](NC(=O)COCCCCOc2ccc(-c3ccc(N4C(=S)N(c5ccc(C#N)c(C(F)(F)F)c5F)C(=O)C4(C)C)cn3)cc2C(F)(F)F)C(C)(C)C)cc1` [Compound A84]: 774 ± 119 ng·h/mL and 140 nM.
The matching figures for `Cc1ncsc1-c1ccc([C@H](C)NC(=O)[C@@H]2C[C@@H](O)CN2C(=O)[C@@H](NC(=O)COCCOc2ccc(-c3ncc(N4C(=S)N(c5ccc(C#N)c(C(F)(F)F)c5F)C(=O)C4(C)C)cc3F)cc2F)C(C)(C)C)cc1` [Compound A123]: 287 ± 146 ng·h/mL and 61.3 nM.
As for `Cc1ncsc1-c1ccc(CNC(=O)[C@@H]2C[C@@H](O)CN2C(=O)[C@@H](NC(=O)COCCOCCOc2ccc(-c3ccc(N4C(=S)N(c5ccc(C#N)c(C(F)(F)F)c5F)C(=O)C4(C)C)cn3)cc2F)C(C)(C)C)cc1` [Compound A85], in series [1], the “eAUC0.5-2 h” value worked out at 70 ± 23 ng·h/mL. This compound also gave a DC50 in series [2] of 33 nM.
Turning to `Cc1ncsc1-c1ccc([C@H](C)NC(=O)[C@@H]2C[C@@H](O)CN2C(=O)[C@@H](NC(=O)COCCCCCOc2ccc(-c3ncc(N4C(=S)N(c5ccc(C#N)c(C(F)(F)F)c5F)C(=O)C4(C)C)cc3F)cc2F)C(C)(C)C)cc1` [Compound A112], the “eAUC0.5-2 h” value in series [1] turned out to be 383 ± 165 ng·h/mL. The compound also registered a DC50 in series [2] of 153 nM.
The matching figures for `Cc1ncsc1-c1ccc(CNC(=O)[C@@H]2C[C@@H](O)CN2C(=O)[C@@H](NC(=O)COCCCCOc2ccc(-c3ncc(N4C(=S)N(c5ccc(C#N)c(C(F)(F)F)c5F)C(=O)C4(C)C)cc3C(F)(F)F)c(F)c2)C(C)(C)C)cc1` [Compound A95]: 1234 ± 430 ng·h/mL and 106 nM.
Regarding `Cc1ncsc1-c1ccc(CNC(=O)[C@@H]2C[C@@H](O)CN2C(=O)[C@@H](NC(=O)COCCCCOc2ccc(-c3ccc(N4C(=S)N(c5ccc(C#N)c(C(F)(F)F)c5F)C(=O)C4(C)C)cn3)cn2)C(C)(C)C)cc1` [Compound A100], the “eAUC0.5-2 h” value in series [1] stood at 720 ± 206 ng·h/mL. In series [2], this compound came in with a DC50 of 18.9 nM.
The matching figures for `Cc1ncsc1-c1ccc(CNC(=O)[C@@H]2C[C@@H](O)CN2C(=O)[C@@H](NC(=O)COCCCOc2ccc(-c3ccc(N4C(=S)N(c5ccc(C#N)c(C(F)(F)F)c5F)C(=O)C4(C)C)cn3)cc2F)C(C)(C)C)cc1` [Compound A72]: 240 ± 68 ng·h/mL and 35.1 nM.
The matching figures for `Cc1ncsc1-c1ccc(CNC(=O)[C@@H]2C[C@@H](O)CN2C(=O)[C@@H](NC(=O)COCCCCCOc2ccc(-c3ccc(N4C(=S)N(c5ccc(C#N)c(C(F)(F)F)c5F)C(=O)C4(C)C)cn3)cc2)C(C)(C)C)cc1` [Compound A73]: 189 ± 108 ng·h/mL and 49.3 nM.
The matching figures for `CC1(C)C(=O)N(c2ccc(C#N)c(C(F)(F)F)c2F)C(=S)N1c1ccc(-c2ccc(OCCNC(=O)COc3cccc4c3C(=O)N(C3CCC(=O)NC3=O)C4=O)c(F)c2)nc1` (centres unmarked) [Compound A35]: 71 ± 51 ng·h/mL and 117 nM.
Take `Cc1ncsc1-c1ccc(CNC(=O)[C@@H]2C[C@@H](O)CN2C(=O)[C@@H](NC(=O)COCCCCOc2ccc(-c3ncc(N4C(=S)N(c5ccc(C#N)c(C(F)(F)F)c5F)C(=O)C4(C)C)cc3C(F)(F)F)cc2F)C(C)(C)C)cc1` [Compound A74]: in series [1], the “eAUC0.5-2 h” value was determined as 746 ± 158 ng·h/mL. In series [2], this compound had a DC50 of 77.8 nM.
